Values quoted from earlier work as cited in patent publication US6348193B1, “Method for inhibiting pathogenic fungi and bacteria in plants using Pseudomonas aureofaciens” (Board of Trustees of Michigan State University, priority 1999, dated 2002).

Columns and labels:
G. graminis var. tritici = conditions: in the soil atmosphere
Magnaporthe poae = conditions: in vivo

## C=C [Ethylene, ethylene]
G. graminis var. tritici
  Concentration inhibitory to G. graminis var. tritici: less than 5 parts-per-million

## faeriefungin
Magnaporthe poae
  Management of summer patch disease of turfgrass: equal to that of the chemical fungicide fenarimol
